Test results: patent US20250295656A1, “COMBINATION OF LURBINECTEDIN AND IMMUNE CHECKPOINT INHIBITORS” (priority 2020, published 2025)

Legend:
[1] = test system: human osteosarcoma U2OS cells; assay: Loss of viability by nuclear morphology (Hoechst 33342), automated microscopy; assay type: cell-based; details: lurbinectedin 1 nM to 1 μM, 4, 8, 16 and 32 hours, comparable to MTX 1 and 3 μM
Protocol: (§1) (a) Human osteosarcoma U2OS (a), human breast cancer HCC70 (b) human colon cancer HT29 cells (c) and murine methylcholantrene-induced fibrosarcoma MCA205 cells (d) were treated with lurbinectedin (Lurbi, 1 nM, 10 nM, 100 nM and 1 μM) for the indicated times. Subsequently, the cells were stained with 1 μM Hoechst 33342 and 1 μM propidium iodide and assessed for the loss of viability by automated image acquisition. Images were segmented, cellular debris was excluded and the number of cells with normal nuclear morphology was enumerated. Cells stably expressing CALR-GFP were treated as above. Following the cells were fixed with 3.7% of PFA, stained with 1 μM Hoechst 33342 and assessed by automated image acquisition. Images were segmented, cellular debris was excluded and CALR-GFP granularity (a surrogate marker of CALR exposure) was evaluated in the cytoplasmic region of cells with normal nuclear morphology. Wild type cells were treated as above and then assessed for cytoplasmic quinacrine granularity (after staining with the ATP-sensitive dye quinacrine together with Hoechst 33342) by automated image acquisition, segmentation and analysis. Cells stably expressing HMGB1-GFP were treated as above and then assessed for nuclear HMGB1-GFP fluorescence intensity. The cells were fixed and stained with Hoechst 33342 and images were acquired, segmented and analyzed. […]

[2] = test system: U2OS cells stably expressing HMGB1-GFP; assay: HMGB1 release (loss of nuclear HMGB1-GFP fluorescence); assay type: cell-based, human; details: lurbinectedin 1 nM to 1 μM, MTX 1 and 3 μM, medium to late time points
Protocol: as §1

[3] = test system: mRNA transcription in U2OS cells; assay: Transcription level by nucleolin/fibrillarin colocalization; assay type: cell-based, human; details: 10, 50 or 100 nM, actinomycin D as control
Protocol: Human osteosarcoma U2OS cells were treated with 10, 50 or 100 nM lurbinectedin (Lurbi) for 6 hours. Thapsigargin (Thaps, 3 μM) was used as a positive control. The cells were fixed with 3.7% PFA and DNA was stained with 1 μM Hoechst 33342. Following the phosphorylation of the eukaryotic translation initiation factor 2 alpha (eIF2a) was assessed with phosphoneoepitope-specific antibody and was monitored by means of automated microscopy as an increase in cytoplasmic fluorescence intensity. (a,b) The level of transcription was measured in U2OS cell treated as above with Lurbi. The transcription inhibitor actinomycin D (ActD) was used as a control. The cells were fixed as above and following the colocalization of nucleolin and fibrillarin was assessed as an indicator for transcriptional activity (c,d) Scale bar equals 10 μm and bar charts depict mean values±SD of quadruplicate assessments (*p<0.01; *p<0.001, two-tailed Student's t test).
In a systematic screening campaign, the capacity of lurbinectedin to induce immunogenic cell death in cancer cells was assessed in human osteosarcoma U2OS cells stably expressing fluorescent biosensors for the detection of CALR-relocation (as a surrogate marker for CALR surface exposure), HMGB1 release and Type I IFN responses together with U2OS WT cells stained with the ATP-sensitive dye quinacrine. […]

COc1ccc2[nH]c3c(c2c1)CCN[C@]31CS[C@@H]2c3c(OC(C)=O)c(C)c4c(c3[C@H](COC1=O)N1[C@@H]2[C@H]2c3c(cc(C)c(OC)c3O)C[C@@H]([C@@H]1O)N2C)OCO4 [lurbinectedin]
cellular viability [1]: dose- and time-dependent drop | nuclear GFP signal (HMGB1-GFP) [2]: significant decrease | mRNA transcription (dissociation of nucleolin and fibrillarin) [3]: inhibited mRNA transcription at a level comparable to a known transcription-inhibitor
